Results published in ChEMBL document CHEMBL5634139, “Novel substituted 4-(Arylethynyl)-Pyrrolo[2,3-d]pyrimidines negative allosteric modulators (NAMs) of the metabotropic glutamate receptor subtype 5 (mGlu5) Treat depressive disorder in mice” (Eur J Med Chem, 2023).
Calls of active or inactive are those of the source. The rule behind the calls is not given here.

Key:
[1] = target: Metabotropic glutamate receptor 5 (Rattus norvegicus, UniProt P31424); experiment: Negative allosteric modulation of rat mGluR5 expressed in HEK293 assessed as decrease in intracellular calcium incubated for 30 mins by Fluo-6 calcium dye based FLIPR assay; type: functional, cell-based
Mus musculus [2] = experiment: Antidepressant activity in chronic unpredictable mild stress induced depression C57BL/6J mouse model assessed as downregulation of CORT level in peripheral serum at 20 mg/kg,IG administration for 3 days by ELISA; type: functional, organism-based; settings: time 3.0 day
Mus musculus [3] = experiment: Antidepressant activity in chronic unpredictable mild stress induced depression C57BL/6J mouse model assessed as increase in time spent in central area at 10 mg/kg,IG administration for 3 days by open field test; type: functional, organism-based; settings: time 3.0 day
Mus musculus [4] = experiment: Antidepressant activity in chronic unpredictable mild stress induced depression C57BL/6J mouse model assessed as increase in frequency entering the central area at 20 mg/kg,IG administration for 3 days by open field test; type: functional, organism-based; settings: time 3.0 day
Mus musculus [5] = experiment: Antidepressant activity in chronic unpredictable mild stress induced depression C57BL/6J mouse model assessed as increase in body weight at 5 to 20 mg/kg,IG administration for 3 days; type: functional, organism-based; settings: dose 5-20 mg/kg, time 3.0 day
Mus musculus [6] = experiment: Antidepressant activity in chronic unpredictable mild stress induced depression C57BL/6J mouse model assessed as increase in time spent in central area at 20 mg/kg,IG administration for 3 days by open field test; type: functional, organism-based; settings: time 3.0 day
Mus musculus [7] = experiment: Antidepressant activity in chronic unpredictable mild stress induced depression C57BL/6J mouse model assessed as upregulation of GluA1 expression in hippocampus at 5 to 20 mg/kg,IG administration for 3 days by Western blotting analysis; type: functional, organism-based; settings: dose 5-20 mg/kg, time 3.0 day
Mus musculus [8] = experiment: Antidepressant activity in chronic unpredictable mild stress induced depression C57BL/6J mouse model assessed as upregulation of 5-HT level in peripheral serum at 20 mg/kg,IG administration for 3 days by ELISA; type: functional, organism-based; settings: time 3.0 day
Mus musculus [9] = experiment: Antidepressant activity in chronic unpredictable mild stress induced depression C57BL/6J mouse model assessed as upregulation of GluA2 expression in hippocampus at 5 to 20 mg/kg,IG administration for 3 days by Western blotting analysis; type: functional, organism-based; settings: dose 5-20 mg/kg, time 3.0 day
Mus musculus [10] = experiment: Antidepressant activity in chronic unpredictable mild stress induced depression C57BL/6J mouse model assessed as change in total distance travelled at 5 to 20 mg/kg,IG administration for 3 days by open field test; type: functional, organism-based; settings: dose 5-20 mg/kg, time 3.0 day
Mus musculus [11] = experiment: Antidepressant activity in chronic unpredictable mild stress induced depression C57BL/6J mouse model assessed as upregulation of BDNF expression in hippocampus at 20 mg/kg,IG administration for 3 days by Western blotting analysis; type: functional, organism-based; settings: time 3.0 day
Mus musculus [12] = experiment: Antidepressant activity in chronic unpredictable mild stress induced depression C57BL/6J mouse model assessed as upregulation of PKA phosphorylation in hippocampus at 20 mg/kg,IG administration for 3 days by Western blotting analysis; type: functional, organism-based; settings: time 3.0 day
Mus musculus [13] = experiment: Antidepressant activity in chronic unpredictable mild stress induced depression C57BL/6J mouse model assessed as upregulation of BDNF expression in hippocampus at 10 mg/kg,IG administration for 3 days by Western blotting analysis; type: functional, organism-based; settings: time 3.0 day
Mus musculus [14] = experiment: Antidepressant activity in chronic unpredictable mild stress induced depression C57BL/6J mouse model assessed as decrease in immobility time at 5 to 20 mg/kg,IG administration for 3 days by tail suspension test; type: functional, organism-based; settings: dose 5-20 mg/kg, time 3.0 day
Mus musculus [15] = experiment: Antidepressant activity in chronic unpredictable mild stress induced depression C57BL/6J mouse model assessed as upregulation of TrkB phosphorylation in hippocampus at 10 mg/kg,IG administration for 3 days by Western blotting analysis; type: functional, organism-based; settings: time 3.0 day
[16] = Toxicity in chronic unpredictable mild stress induced depression C57BL/6J mouse model assessed as change in AST level in liver at 40 mg/kg,IG administration for 3 days by ELISA; type: organism-based; settings: in vivo, po, 72 h, time 3 day
Mus musculus [17] = experiment: Antidepressant activity in chronic unpredictable mild stress induced depression C57BL/6J mouse model assessed as upregulation of TrkB phosphorylation in hippocampus at 20 mg/kg,IG administration for 3 days by Western blotting analysis; type: functional, organism-based; settings: time 3.0 day
Mus musculus [18] = experiment: Antidepressant activity in chronic unpredictable mild stress induced depression C57BL/6J mouse model assessed as increase in frequency entering the central area at 10 mg/kg,IG administration for 3 days by open field test; type: functional, organism-based; settings: time 3.0 day
[19] = Toxicity in chronic unpredictable mild stress induced depression C57BL/6J mouse model assessed as change in ALT level in liver at 40 mg/kg,IG administration for 3 days by ELISA; type: organism-based; settings: in vivo, po, 72 h, time 3 day
[20] = Toxicity in chronic unpredictable mild stress induced depression C57BL/6J mouse model assessed as change in creatine kinase level in heart at 40 mg/kg,IG administration for 3 days by ELISA; type: organism-based; settings: in vivo, po, 72 h, time 3 day
Mus musculus [21] = experiment: Antidepressant activity in chronic unpredictable mild stress induced depression C57BL/6J mouse model assessed as downregulation of CORT level in peripheral serum at 10 mg/kg,IG administration for 3 days by ELISA; type: functional, organism-based; settings: time 3.0 day
Mus musculus [22] = experiment: Antidepressant activity in chronic unpredictable mild stress induced depression C57BL/6J mouse model assessed as decrease in immobility time at 5 to 20 mg/kg,IG administration for 3 days by forced swimming test; type: functional, organism-based; settings: dose 5-20 mg/kg, time 3.0 day
Mus musculus [23] = experiment: Antidepressant activity in chronic unpredictable mild stress induced depression C57BL/6J mouse model assessed as upregulation of 5-HT level in peripheral serum at 5 mg/kg,IG administration for 3 days by ELISA; type: functional, organism-based; settings: time 3.0 day
Mus musculus [24] = experiment: Antidepressant activity in chronic unpredictable mild stress induced depression C57BL/6J mouse model assessed as increase in body weight at 5 mg/kg,IG administration for 3 days; type: functional, organism-based; settings: time 3.0 day
Mus musculus [25] = experiment: Antidepressant activity in chronic unpredictable mild stress induced depression C57BL/6J mouse model assessed as downregulation of CORT level in peripheral serum at 5 mg/kg,IG administration for 3 days by ELISA; type: functional, organism-based; settings: time 3.0 day
Mus musculus [26] = experiment: Antidepressant activity in chronic unpredictable mild stress induced depression C57BL/6J mouse model assessed as decrease in immobility time at 5 mg/kg,IG administration for 3 days by tail suspension test; type: functional, organism-based; settings: time 3.0 day
Mus musculus [27] = experiment: Antidepressant activity in chronic unpredictable mild stress induced depression C57BL/6J mouse model assessed as increase in frequency entering the central area at 5 mg/kg,IG administration for 3 days by open field test; type: functional, organism-based; settings: time 3.0 day
Mus musculus [28] = experiment: Antidepressant activity in chronic unpredictable mild stress induced depression C57BL/6J mouse model assessed as increase in time spent in central area at 5 mg/kg,IG administration for 3 days by open field test; type: functional, organism-based; settings: time 3.0 day
Mus musculus [29] = experiment: Antidepressant activity in chronic unpredictable mild stress induced depression C57BL/6J mouse model assessed as change in total distance travelled at 5 mg/kg,IG administration for 3 days by open field test; type: functional, organism-based; settings: time 3.0 day
Mus musculus [30] = experiment: Antidepressant activity in chronic unpredictable mild stress induced depression C57BL/6J mouse model assessed as decrease in immobility time at 5 mg/kg,IG administration for 3 days by forced swimming test; type: functional, organism-based; settings: time 3.0 day

Sequence of Metabotropic glutamate receptor 5 (P31424 whole entry): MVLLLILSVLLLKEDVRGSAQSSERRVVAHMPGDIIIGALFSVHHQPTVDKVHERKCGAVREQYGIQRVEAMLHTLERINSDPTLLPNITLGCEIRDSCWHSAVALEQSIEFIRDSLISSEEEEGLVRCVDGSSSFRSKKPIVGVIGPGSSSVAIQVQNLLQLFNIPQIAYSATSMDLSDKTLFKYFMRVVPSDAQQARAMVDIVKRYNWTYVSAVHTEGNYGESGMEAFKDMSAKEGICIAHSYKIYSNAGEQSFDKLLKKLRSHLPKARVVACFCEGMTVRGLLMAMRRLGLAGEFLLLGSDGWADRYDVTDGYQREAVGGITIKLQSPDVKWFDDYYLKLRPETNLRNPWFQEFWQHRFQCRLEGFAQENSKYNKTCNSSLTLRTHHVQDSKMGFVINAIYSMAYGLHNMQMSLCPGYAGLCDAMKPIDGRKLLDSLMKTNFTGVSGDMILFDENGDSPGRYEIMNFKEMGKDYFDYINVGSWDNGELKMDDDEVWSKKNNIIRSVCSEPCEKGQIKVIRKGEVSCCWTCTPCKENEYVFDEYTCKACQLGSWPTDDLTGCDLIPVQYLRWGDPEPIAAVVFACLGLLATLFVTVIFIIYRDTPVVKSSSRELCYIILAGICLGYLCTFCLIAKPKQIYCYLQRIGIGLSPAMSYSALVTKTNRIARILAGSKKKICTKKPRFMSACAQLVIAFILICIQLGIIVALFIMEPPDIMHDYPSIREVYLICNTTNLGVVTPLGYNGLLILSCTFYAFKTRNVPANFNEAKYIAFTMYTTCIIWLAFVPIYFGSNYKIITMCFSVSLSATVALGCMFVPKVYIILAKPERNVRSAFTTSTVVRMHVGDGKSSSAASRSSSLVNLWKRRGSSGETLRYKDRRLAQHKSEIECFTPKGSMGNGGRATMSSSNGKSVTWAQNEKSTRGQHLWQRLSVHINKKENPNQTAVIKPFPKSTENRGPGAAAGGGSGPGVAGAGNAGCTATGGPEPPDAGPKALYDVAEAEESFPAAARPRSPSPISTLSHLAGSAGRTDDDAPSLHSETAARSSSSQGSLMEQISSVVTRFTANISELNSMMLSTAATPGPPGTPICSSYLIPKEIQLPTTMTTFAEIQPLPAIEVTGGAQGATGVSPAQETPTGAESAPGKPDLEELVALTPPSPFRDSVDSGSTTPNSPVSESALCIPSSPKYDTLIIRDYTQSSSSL

Cn1c(C(=O)Nc2ccc(I)cc2)cc2c(C#Cc3ccccc3)ncnc21
IC50 [1]: 194 nM

CN(C)c1ccc(NC(=O)c2cc3c(C#Cc4ccc(F)cc4)ncnc3n2C)cc1
IC50 [1]: 135 nM

COc1ccc(C#Cc2ncnc3c2cc(C(=O)Nc2ccc(OC)cc2)n3C)cc1
IC50 [1]: 84 nM

Cn1c(C(=O)Nc2ccc(C(C)(C)C)cc2)cc2c(C#Cc3ccccn3)ncnc21
IC50 [1]: 2030 nM

Cn1c(C(=O)Nc2ccc(OC(F)(F)F)cc2)cc2c(C#Cc3ccccc3)ncnc21
IC50 [1]: 308 nM

Cn1c(C(=O)Nc2ccccc2)cc2c(C#Cc3ccc(F)cc3)ncnc21
IC50 [1]: 62.2 nM

Cc1ccc(C#Cc2ncnc3c2cc(C(=O)Nc2ccccc2)n3C)cc1
IC50 [1]: 1380 nM

COc1ccc(C#Cc2ncnc3c2cc(C(=O)Nc2ccc(C)cc2)n3C)cc1
IC50 [1]: 241 nM

Cn1c(C(=O)Nc2ccc(F)cc2)cc2c(C#Cc3ccccc3)ncnc21
IC50 [1]: 63.6 nM

Cn1c(C(=O)Nc2ccc(F)cc2)cc2c(C#Cc3ccccn3)ncnc21
IC50 [1]: 3180 nM

COc1ccc(NC(=O)c2cc3c(C#Cc4ccccc4)ncnc3n2C)cc1
Activity (Mus musculus [2]): Active
Activity (Mus musculus [3]): Active
Activity (Mus musculus [4]): Active
Activity (Mus musculus [5]): Active
Activity (Mus musculus [6]): Active
Activity (Mus musculus [7]): Active
Activity (Mus musculus [8]): Active
Activity (Mus musculus [9]): Active
Activity (Mus musculus [10]): inactive
Activity (Mus musculus [11]): Active
Activity (Mus musculus [12]): Active
Activity (Mus musculus [13]): Active
Activity (Mus musculus [14]): Active
Activity (Mus musculus [15]): Active
Activity [16]: Non-Toxic
Activity (Mus musculus [17]): Active
Activity (Mus musculus [18]): Active
Activity [19]: Non-Toxic
IC50 [1]: 11.5 nM
Activity [20]: Non-Toxic
Activity (Mus musculus [21]): Active
Activity (Mus musculus [22]): Active

Cn1c(C(=O)Nc2ccc(Cl)cc2)cc2c(C#Cc3ccccc3)ncnc21
IC50 [1]: 622 nM

CN(C)c1ccc(NC(=O)c2cc3c(C#Cc4ccccc4)ncnc3n2C)cc1
IC50 [1]: 125 nM

Cn1c(C(=O)Nc2ccc(Cl)c(Cl)c2)cc2c(C#Cc3ccccc3)ncnc21
IC50 [1]: 2030 nM

COc1ccc(C#Cc2ncnc3c2cc(C(=O)Nc2ccc(C(C)(C)C)cc2)n3C)cc1
IC50 [1]: 734 nM

Cc1ccc(NC(=O)c2cc3c(C#Cc4ccccc4)ncnc3n2C)cc1
IC50 [1]: 38.9 nM

Cc1nc(C#Cc2ncnc3c2cc(C(=O)Nc2ccccc2)n3C)cs1
IC50 [1]: 2280 nM

COc1ccc(C#Cc2ncnc3c2cc(C(=O)Nc2ccc(F)cc2)n3C)cc1
IC50 [1]: 482 nM

Cn1c(C(=O)Nc2ccc(Cl)cc2)cc2c(C#Cc3ccc(F)cc3)ncnc21
IC50 [1]: 248 nM

Cn1c(C(=O)Nc2ccccc2)cc2c(C#Cc3ccccc3)ncnc21
IC50 [1]: 75.4 nM

Cn1c(C(=O)Nc2ccc(C(C)(C)C)cc2)cc2c(C#Cc3ccccc3)ncnc21
IC50 [1]: 1390 nM

Cc1ccc(NC(=O)c2cc3c(C#Cc4csc(C)n4)ncnc3n2C)cc1
IC50 [1]: 5570 nM

Cc1ccc(NC(=O)c2cc3c(C#Cc4ccc(F)cc4)ncnc3n2C)cc1
IC50 [1]: 101 nM

Cn1c(C(=O)Nc2cccc(Cl)c2)cc2c(C#Cc3ccccc3)ncnc21
IC50 [1]: 529 nM

Cc1ccc(C#Cc2ncnc3c2cc(C(=O)Nc2ccc(F)cc2)n3C)cc1
IC50 [1]: 1010 nM

CN(C)c1ccc(NC(=O)c2cc3c(C#Cc4ccccn4)ncnc3n2C)cc1
IC50 [1]: 2470 nM

COc1ccc(NC(=O)c2cc3c(C#Cc4ccc(F)cc4)ncnc3n2C)cc1
IC50 [1]: 15.2 nM

COc1ccc(NC(=O)c2cc3c(C#Cc4ccccn4)ncnc3n2C)cc1
IC50 [1]: 922 nM

Cc1ccc(C#Cc2ncnc3c2cc(C(=O)Nc2ccc(C)cc2)n3C)cc1
IC50 [1]: 947 nM

COc1ccc(NC(=O)c2cc3c(C#Cc4ccc(C)cc4)ncnc3n2C)cc1
IC50 [1]: 356 nM

COc1ccc(NC(=O)c2cc3c(C#Cc4csc(C)n4)ncnc3n2C)cc1
IC50 [1]: 236 nM

CNCCC(Oc1ccc(C(F)(F)F)cc1)c1ccccc1 (configuration not stated)
Activity (Mus musculus [23]): Active
Activity (Mus musculus [24]): Active
Activity (Mus musculus [25]): Active
Activity (Mus musculus [26]): Active
Activity (Mus musculus [27]): Active
Activity (Mus musculus [28]): Active
Activity (Mus musculus [29]): inactive
Activity (Mus musculus [30]): Active

Cc1nc(C#Cc2ccnc(Cl)c2)c(C)n1-c1ccc(F)cc1 [BASIMGLURANT]
IC50 [1]: 4.3 nM

COc1ccc(C#Cc2ncnc3c2cc(C(=O)Nc2ccc(N(C)C)cc2)n3C)cc1
IC50 [1]: 824 nM

Cc1ccc(C#Cc2ncnc3c2cc(C(=O)Nc2ccc(N(C)C)cc2)n3C)cc1
IC50 [1]: 3760 nM

Cn1c(C(=O)Nc2ccc(F)cc2)cc2c(C#Cc3ccc(F)cc3)ncnc21
IC50 [1]: 90.8 nM

COc1ccc(C#Cc2ncnc3c2cc(C(=O)Nc2ccccc2)n3C)cc1
IC50 [1]: 764 nM

Cn1c(C(=O)Nc2ccc(C(C)(C)C)cc2)cc2c(C#Cc3ccc(F)cc3)ncnc21
IC50 [1]: 2340 nM

Cc1ccc(C#Cc2ncnc3c2cc(C(=O)Nc2ccc(C(C)(C)C)cc2)n3C)cc1
IC50 [1]: > 10000 nM
